According to patent publication US7205285B2, “Acyl phosphonate inhibitors of β-lactamases” (Methylgene, Inc., priority 1997, dated 2007):
pIC50: −log10 of the molar value.

Tests used:
[1] = target: T1, Enterobacter cloacae P99 β-lactamase (Enterobacter cloacae, UniProt P05364); assay: Inhibition of P99 β-lactamase, nitrocefin assay (IC50); format: biochemical; details: nitrocefin substrate, 20 mM MOPS pH 7.50
T1 construct: purchased Porton Down, Wiltshire, U.K
Experimental: The enzyme (Enterobacter cloacae P99 β-lactamase) was dissolved to a concentration of 1 mg/mL in 20 mM MOPS buffer at pH 7.50, and then diluted 200-fold in the same buffer containing 0.1% BSA. The commercially available substrate nitrocefin was added as a 100 μM stock solution in 20 mM MOPS buffer, and inhibitors were also added as solutions in MOPS buffer. In a typical assay the following amounts were used: 300 μL of nitrocefin, 10 μL of P99 β-lactamase, x μL of inhibitor, and […] of MOPS buffer. Enzyme activity was measured at 25 EC, and the reaction was monitored spectrophotometrically at 482 nm. IC50 values were determined from the dose-response plots of the initial reaction rate vs. inhibitor concentration.

[2] = target: T1, Enterobacter cloacae P99 β-lactamase; format: biochemical; details: values in parentheses, second order rate constant for inhibition
Experimental: To evaluate the inhibitors and the methods of the invention, representative inhibitors preparations were tested using class A (TEM-2 plasmid TEM)) β-lactamase and class C (Enterobacter cloacae P99 β-lactamase) β-lactamases (Porton Down, Wiltshire, U.K.) as well as representative DD-peptidases/carboxydases (e.g., Streptomyces R61 DD-peptidases) as the assayed enzyme.
Steady state kinetic parameters were directly obtained for representative inhibitors with the P99 β-lactamase with TEM β-lactamase by standard methods (e.g., Wilkinson, Biochem J. 80:324–332 (1989)) from spectrophotometric initial velocity measurements. Kinetic parameters were also obtained for DD-peptidase as the assayed enzyme, according to standard methods using hyppuryl-DL-phenyl-lactate (a known DD-peptidase substrate) (e.g. Govardhan and Pratt, Biochemistry 26:3385–3395 (1987)). The concentration of stock enzyme solutions were determined spectrophotometrically (e.g., Xu, et al., Biochemistry 35:[…] (1996)).
Representative class C and a class A β-lactamases were inhibited by representative inhibitors of Formulae I and II in a time-dependent fashion as described by the relation:
Representative inhibitors of the invention having Formula I may act by forming a covalent bond between β-lactamases and the inhibitor (i.e., irreversible inhibition). This type of inhibition is therefore time dependent. It is distinguished from reversible inhibition in so far that the backward reaction is extremely slow. […] Thus, irreversible inhibition is measured by how fast the event takes place (rate constant ki). Thus, inhibitory efficiency is expressed by large ki values.
Representative inhibitors of Formula I may also act by forming a transient acyl-enzyme intermediate. Inhibition results from a slow turn over, (de-acylation) of the intermediate.
In Table 3, kcat/km values are presented in plain text, with ki values for representative inhibitors appearing in parentheses. […]

Staph. Aureaus = assay: Microbiological testing: potentiation of β-lactam antibiotic; format: cell-based; details: Piperacillin, compound at 100 μg/mL
From the text: (§1) To test the inhibitors of the invention, a wide range of organisms are used to assess compounds according to the invention; both as antibiotics and as β-Lactamase inhibitors: Initial screening for antibiotic activity utilizes penicillin sensitive S. aureus [ATTC# 25923], ampicillin sensitive H. influenzae [ATCC#10211] and clinical laboratory isolates of ampicillin sensitive E. faecalis and H. influenzae, and non-resistant P. aeruginosa. Initial studies utilize, in microtiter wells, 1 microgram of compound in 10 microliters diluted stock solution, 41,100 CFU of bacteria in 10 microliters broth solution and 80 microliters CAMHB. The count verification well contains 10 microliters CAMHB in place of the test compound. […] Microbiological and enzymatic testing is carried on duplicate plates with negative control plates.
(§2) Compounds were tested at a concentration of 100 μg/mL.
(§3) In Table 5, the microorganism tested against is shown in italics, while the antibiotic agent used is shown in plain text. […] When determined, the number in parentheses indicates the fold reduction in the MIC of the antibiotic agent when measured in the presence of the inhibitor of the invention.

[3] = Spontaneous hydrolysis in neutral aqueous solution; format: physicochemical; details: for spontaneous hydrolysis, in words: neutral aqueous solution, relative to most compounds of the invention
Experimental: The cyclic phosphoryl chloride (500 mg; 2.3 mmol) was suspended in 60 mL of anhydrous acetonitrile (Aldrich, Sure/Seal) and water (41 μL, 2.3 mmol) added with magnetic stirring. The mixture was then gently warmed until the crystals of the starting material disappeared (ca. 5 min.). Two molar equivalents of redistilled dicyclohexylamine (913 μL) were then added. The immediately precipitating solid ([…]) was removed by vacuum filtration and the remaining solvent by rotary evaporation.

Ent. Cloacae = assay: Microbiological testing: potentiation of β-lactam antibiotic; format: cell-based; details: compound at 100 μg/mL
From the text: as §1, §2, §3

Haemophilus Influenzae = assay: as above; format: cell-based; details: Ticarcillin, compound at 100 μg/mL
From the text: as §1, §2, §3

[4] = target: TEM-2 plasmid (TEM) β-lactamase (Escherichia coli, UniProt P62593, Q37K); format: biochemical; details: values in parentheses

Row | SMILES | ki [2] | other results
1 | O=C(OP(=O)(O)Oc1cccc2ccccc12)c1ccccc1 [Compound XII] | – | pIC50 [1]: 5.10
2 | O=C(OP(=O)(O)c1cccc([N+](=O)[O-])c1)c1ccccc1 [Compound XIX] | 0.0179(65 ± 19) s^−1 M^−1 | –
3 | O=C(OP(=O)(O)Oc1ccc([N+](=O)[O-])cc1)c1ccccc1 [Compound XI] | ≤ 2 s⁻¹ M⁻¹ | pIC50 [1]: 4.41
4 | O=C(OP(=O)(O)c1ccc([N+](=O)[O-])cc1)c1ccccc1 [Compound XVIII] | 0.0125(25 ± 3) s^−1 M^−1 | –
5 | CCCCCCOP(=O)(O)OC(=O)c1ccccc1 [Compound XVII] | 0.125(≦1) s^−1 M^−1 | –
6 | O=C1C=C(c2ccccc2)OP(=O)(O)O1 [Compound XVI] | – | fold reduction in the MIC of the antibiotic agent (Staph. Aureaus): 2 fold
7 | CCCCCCP(=O)(O)OC(=O)c1ccccc1 [Compound XXII] | 0.0226(11.1 ± 0.1) s^−1 M^−1 | –
8 | COc1ccccc1C(=O)OP(=O)(O)Oc1ccccc1 [Compound XXIX] | 3.6 ± 0.4 s⁻¹ M⁻¹ | –
9 | O=C(OP(=O)(O)c1ccc(-c2ccccc2)cc1)c1ccccc1 [Compound XXI] | 0.117(89 ± 4) s^−1 M^−1 | –
10 | Cc1cccc(C)c1C(=O)OP(=O)(O)Oc1ccccc1 [Compound XXVIII] | (20.9 ± 1.5) s^−1 M^−1 | –
11 | O=C(OP(=O)(O)Oc1ccccc1)c1ccc(-c2ccccc2)cc1 [Compound XXVII] | ≤ 3 s⁻¹ M⁻¹ | –
12 | O=C(OP(=O)(O)Oc1ccccc1)c1cc2ccccc2s1 [Compound XXVI] | ≤ 5 s⁻¹ M⁻¹ | –
13 | O=C(/C=C/c1ccccc1)OP(=O)(O)Oc1ccccc1 [Compound XXV] | ≤ 1 s⁻¹ M⁻¹ | –
14 | O=C(OP(=O)(O)Oc1ccc2ccccc2c1)c1ccccc1 [Compound XXXI] | ≤ 1 s⁻¹ M⁻¹ | –
15 | O=C(OP(=O)(O)Oc1ccc2ccccc2c1)c1cc2ccccc2s1 [Compound XXX] | 1813 ± 3 s⁻¹ M⁻¹ | –
16 | O=C(OP(=O)(O)c1ccc2ccccc2c1)c1ccccc1 [Compound XX] | 0.0551(115 ± 5) s^−1 M^−1 | –
17 | O=C(Cc1ccccc1)OP(=O)(O)Oc1ccccc1 [Compound X] | ≤ 0.04 s⁻¹ M⁻¹ | pIC50 [1]: 4.52; spontaneous hydrolysis, in words [3]: shorter half-lives
18 | O=C1OP(=O)(O)Oc2ccccc21 [V, 1-hydroxy-4,5-benz-2.6-dioxaphosphorinanone-(3)-1-oxide] | – | rate of hydrolysis kobs ([3]; 20 mM MOPS, pH 7.5, 25° C.): 1.7e-05 s⁻¹
19 | COP(=O)(O)OC(=O)c1ccccc1 [VIII] | – | fold reduction in the MIC of the antibiotic agent (Ent. Cloacae; Cefoxitin): 2 fold; fold reduction in the MIC of the antibiotic agent (Ent. Cloacae; Ceftriaxone): 2 fold; fold reduction in the MIC of the antibiotic agent (Haemophilus Influenzae): 0 fold
20 | O=C(OP(=O)(O)Oc1ccccc1)c1ccccc1 [XIII, sodium benzoyl phenyl phosphate] | – | ki [4]: 0.001(0.2) s^−1 M^−1
21 | O=C(OP(=O)(O)OC(=O)c1ccccc1)c1ccccc1 [XIV, sodium dibenzoyl phosphate] | – | ki [4]: 0.120(14.3) s^−1 M^−1
22 | O=C(NCP(=O)(O)OC(=O)c1ccccc1)OCc1ccccc1 [XXXIII] | (5.9 ± 0.3 × 10^4) s^−1 M^−1 | ki [4]: (130 ± 8) s^−1 M^−1; spontaneous hydrolysis, in words [3]: more rapidly hydrolyzed
23 | O=C(Cc1ccccc1)NCC(=O)OP(=O)(O)Oc1ccccc1 [XXXII] | – | spontaneous hydrolysis, in words [3]: more rapidly hydrolyzed
